Source: ChEMBL document CHEMBL1145063, “Structure-based design of a macrocyclic inhibitor for peptide deformylase” (J Med Chem, 2003)
Values after ≈ are worked out from the molar mass of the structure shown.

Legend:
[1] = tested on: Bacillus subtilis; assay: In vitro minimal inhibitory concentration against Bacillus subtilis was determined; format: functional
[2] = target: T1, Peptide deformylase (Escherichia coli, UniProt Q9JN24); assay: Binding affinity against Co(II)-substituted Escherichia coli peptide deformylase was determined
T1 sequence (Q9JN24 whole entry): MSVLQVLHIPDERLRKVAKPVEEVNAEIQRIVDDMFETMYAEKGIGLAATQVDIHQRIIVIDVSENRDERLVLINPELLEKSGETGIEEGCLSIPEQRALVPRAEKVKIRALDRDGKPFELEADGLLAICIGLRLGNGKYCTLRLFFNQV

[3] = tested on: Escherichia coli; assay: In vitro minimal inhibitory concentration against Escherichia coli was determined; format: functional
[4] = target: T1, Peptide deformylase; assay: Inhibitory concentration against peptide deformylase was determined

| MIC [1] | Ki [2] | MIC [3] | SMILES | IC50 [4] |
| --- | --- | --- | --- | --- |
| 4 µM (≈ 1.48 µg/mL) | 0.67 nM | 32 µM (≈ 11.8 µg/mL) | CC(C)(C)[C@@H]1NC(=O)C(CN(O)C=O)CCCCCCCCCNC1=O (some centres undefined) |  |
|  |  |  | CCCCC(CN(O)C=O)C(=O)N[C@H](C(=O)N(C)C)C(C)(C)C (some centres undefined) | 7 nM |
